The results in this text go back to ChEMBL document CHEMBL3393030, “Synthesis and properties of vitamin E analog-conjugated neomycin for delivery of RNAi drugs to liver cells” (Bioorg Med Chem Lett, 2015).

The nature of data set [1]: Binding affinity to self-complementary RNA-12mer duplex (5'-rCGCGAAUUCGCG-3')2 (unknown origin) assessed as melting temperature by […] assay (reference value: 61 degC). To be noted: Homo sapiens.
The test system of data set [2] is RH7777. As to the kind of experiment: Induction of RNAi activity in rat McA-RH7777 cells by LDLR assay. It counts as cell-based.
The nature of data set [3]: Drug uptake in mouse HePa1-6 cells assessed as red signal with Cy3 conjugate compound. The data set is classed as ADME, cell-based.

The structures appear in SMILES notation.

One may read the Tm as the temperature at the midpoint of the melting transition. As for `CCCCCCCCCCCCCCCCCC(=O)Oc1c(C)c(C)c2c(c1C)CC[C@@](C)(CCCCCCCCCOCc1cn(CCCCCCCCCCCCCCCCSC[C@H]3O[C@@H](O[C@@H]4[C@@H](O)[C@H](N)C[C@H](N)[C@H]4O[C@H]4O[C@H](CN)[C@@H](O)[C@H](O)[C@H]4N)[C@H](O)[C@@H]3O[C@H]3O[C@@H](CN)[C@@H](O)[C@H](O)[C@H]3N)nn1)O2`, the Tm in data set [1] came out at 65.6 °C.

Take `NC[C@@H]1O[C@H](O[C@H]2[C@@H](O)[C@H](O[C@@H]3[C@@H](O)[C@H](N)C[C@H](N)[C@H]3O[C@H]3O[C@H](CN)[C@@H](O)[C@H](O)[C@H]3N)O[C@@H]2CO)[C@H](N)[C@@H](O)[C@@H]1O`: the Tm in data set [1] came to 64.2 °C.

Consider `CCCCCCCC/C=C/CCCCCCCC(=O)Oc1c(C)c(C)c2c(c1C)CC[C@@](C)(CCCCCCCCCOCc1cn(CCCCCCCCCCCCCCCCSC[C@H]3O[C@@H](O[C@@H]4[C@@H](O)[C@H](N)C[C@H](N)[C@H]4O[C@H]4O[C@H](CN)[C@@H](O)[C@H](O)[C@H]4N)[C@H](O)[C@@H]3O[C@H]3O[C@@H](CN)[C@@H](O)[C@H](O)[C@H]3N)nn1)O2`, for which, in data set [2], the Activity result is listed as “Toxic”. In data set [1], the Tm is 66.8 °C. The Drug uptake result in data set [3] is on record as “Active”.

Regarding `CCCCCCCCCCCCCCCCOC(COC[C@]1(C)CCc2c(C)c(O)c(C)c(C)c2O1)OCc1cn(CCCCCCCCCCCCCCCCSC[C@H]2O[C@@H](O[C@@H]3[C@@H](O)[C@H](N)C[C@H](N)[C@H]3O[C@H]3O[C@H](CN)[C@@H](O)[C@H](O)[C@H]3N)[C@H](O)[C@@H]2O[C@H]2O[C@@H](CN)[C@@H](O)[C@H](O)[C@H]2N)nn1` (stereo partly drawn), in data set [2], the Activity result is “Toxic”. In data set [1], the Tm stood at 72.8 °C. For the same compound, the Drug uptake result in data set [3] is given as “Active”.
